# Measured values: ChEMBL document CHEMBL1201862, “PubChem BioAssay data set” (2004)
# Active and inactive are the calls of the source.
# Legend:
# [1] = target: Glyceraldehyde-3-phosphate dehydrogenase (Homo sapiens, UniProt P04406)
# Bcl-2-related protein A1 [2] = target: T1, Bcl-2-related protein A1 (Mus musculus, UniProt Q07440); experiment: Bfl-1 binding inhibitors, SAR follow-up, biochemical, fluorescence polarization (AID 1070)
# T1 sequence (Q07440 whole entry): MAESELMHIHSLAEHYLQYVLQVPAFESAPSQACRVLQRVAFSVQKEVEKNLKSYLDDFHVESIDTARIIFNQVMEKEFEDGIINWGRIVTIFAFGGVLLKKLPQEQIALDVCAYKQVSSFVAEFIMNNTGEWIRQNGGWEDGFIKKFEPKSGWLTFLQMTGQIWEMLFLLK
# Bcl-2-related protein A1 [3] = target: T1, Bcl-2-related protein A1; experiment: small-molecule antagonists of Bfl-1/BH3 interaction – biochemical, TR-FRET, mouse Bfl-1, confirmation (AID 621);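 also: TR-FRET binding of GST-Bfl-1 to FITC-labelled Bid peptide via terbium antibody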
# [4] = target: T2, Heat shock factor protein 1 (Mus musculus, UniProt P38532); experiment: enhancement of HSF1-driven luciferase signal – cell-based, NIH3T3, luminescence, dose retest, confirmation (AID 435004); assay type: functional;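 also: stress induced by proteasome inhibitor MG132 added 30 min after compound; luciferase reporter driven by HSF1 response element in NIH3T3 cells; actives raise luminescence as potentiators of the MG132 stress response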
# T2 sequence (P38532 whole entry): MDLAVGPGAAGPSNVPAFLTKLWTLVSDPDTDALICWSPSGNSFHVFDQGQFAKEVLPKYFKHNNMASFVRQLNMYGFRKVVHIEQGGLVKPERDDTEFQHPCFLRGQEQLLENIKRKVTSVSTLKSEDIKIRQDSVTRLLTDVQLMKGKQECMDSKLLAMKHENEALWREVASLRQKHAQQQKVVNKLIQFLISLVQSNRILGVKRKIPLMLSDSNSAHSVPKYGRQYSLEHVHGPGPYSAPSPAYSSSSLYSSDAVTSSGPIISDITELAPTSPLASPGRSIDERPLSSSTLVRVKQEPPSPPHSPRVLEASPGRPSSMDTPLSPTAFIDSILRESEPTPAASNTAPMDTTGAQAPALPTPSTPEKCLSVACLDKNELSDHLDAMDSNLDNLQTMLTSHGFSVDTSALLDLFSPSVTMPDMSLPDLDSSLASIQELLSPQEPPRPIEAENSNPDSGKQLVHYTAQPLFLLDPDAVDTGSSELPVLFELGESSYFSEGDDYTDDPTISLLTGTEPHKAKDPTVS
# [5] = Fluorescence Cell-Based Dose Response to Identify Inhibitors of Thrombin Receptor-Activating Peptide SFLLRN-Mediated P-Selectin Induction on Platelets. [Related pubchem assays: 1663 (Primary HTS), 1889 (retest at dose ), 1891 (counterscreen), 1678 (Project Summary)]; assay type: functional
# [6] = Fluorescence-based cell-based high throughput dose response assay for inhibitors of the interaction of nucleotide-binding oligomerization domain containing 2 (NOD2) and the receptor-interacting serine-threonine kinase 2 (RIPK2).; assay type: functional; settings: Homo sapiens
# Beta-galactosidase = Beta-galactosidase (Escherichia coli, UniProt Q8VNN2); experiment: detection-enzyme interference by beta-gal modulators – biochemical, E. coli enzyme, set 3, artefact control for CCR6 antagonist project, dose response (AID 504712); assay type: functional
# [7] = Luminescence Cell-Based Dose Confirmation HTS to Identify Inhibitors of Platelet Dense Granule Release. [Related pubchem assays: 1663 (Primary HTS), 1678 (Summary of Project)]; assay type: functional
# Beta Lactamase = Beta Lactamase (Pseudomonas aeruginosa, UniProt Q932Y6); experiment: BLA reporter interference, concentration series – BLA reporter cells, FRET fluorescence, artefact control for NOD2-RIPK2 interaction inhibitor project, dose response (AID 651552); assay type: functional, cell-based
# [8] = target: Luciferin 4-monooxygenase (Photinus pyralis, UniProt P08659); experiment: inhibition of purified Photinus pyralis luciferase – biochemical, luminescence, dose response (AID 1891)
# Cytochrome P450 2C9 = Cytochrome P450 2C9 (Homo sapiens, UniProt P11712); settings: Potency
# Cytochrome P450 2C19 = Cytochrome P450 2C19 (Homo sapiens, UniProt P33261); experiment: qHTS Assay for Inhibitors and Substrates of Cytochrome P450 2C19. [Related pubchem assays: 410 ]; assay type: ADME; settings: read-out: Potency
# Procathepsin L = Procathepsin L (Homo sapiens, UniProt P07711); experiment: CTSL1 protease inhibition – biochemical, QFRET, 1536-well, counter-screen for M1/M17 aminopeptidase inhibitor project, dose response (AID 2214)
# Aspartyl aminopeptidase = Aspartyl aminopeptidase (Plasmodium falciparum 3D7, UniProt Q8I2J3); experiment: Counterscreen for inhibitors of M1 and M17 aminopeptidases: QFRET-based biochemical high throughput dose response assay for inhibitors of the Plasmodium falciparum M18 Aspartyl Aminopeptidase (PFM18AAP). [Related PubChem assays: 1619 (Screening assay (M17LAP inhibitors).), 1445 (Screening assay (M1AAP inhibitors).)]
# Aminopeptidase N = target: T3, Aminopeptidase N (Plasmodium falciparum FcB1/Columbia, UniProt O96935); experiment: malaria alanyl aminopeptidase activity blockers – biochemical, fluorogenic H-Leu-NHMec substrate, 1536-well (AID 1445); set-up: species or system Plasmodium falciparum 3D7, 3D7
# T3 sequence (O96935 whole entry): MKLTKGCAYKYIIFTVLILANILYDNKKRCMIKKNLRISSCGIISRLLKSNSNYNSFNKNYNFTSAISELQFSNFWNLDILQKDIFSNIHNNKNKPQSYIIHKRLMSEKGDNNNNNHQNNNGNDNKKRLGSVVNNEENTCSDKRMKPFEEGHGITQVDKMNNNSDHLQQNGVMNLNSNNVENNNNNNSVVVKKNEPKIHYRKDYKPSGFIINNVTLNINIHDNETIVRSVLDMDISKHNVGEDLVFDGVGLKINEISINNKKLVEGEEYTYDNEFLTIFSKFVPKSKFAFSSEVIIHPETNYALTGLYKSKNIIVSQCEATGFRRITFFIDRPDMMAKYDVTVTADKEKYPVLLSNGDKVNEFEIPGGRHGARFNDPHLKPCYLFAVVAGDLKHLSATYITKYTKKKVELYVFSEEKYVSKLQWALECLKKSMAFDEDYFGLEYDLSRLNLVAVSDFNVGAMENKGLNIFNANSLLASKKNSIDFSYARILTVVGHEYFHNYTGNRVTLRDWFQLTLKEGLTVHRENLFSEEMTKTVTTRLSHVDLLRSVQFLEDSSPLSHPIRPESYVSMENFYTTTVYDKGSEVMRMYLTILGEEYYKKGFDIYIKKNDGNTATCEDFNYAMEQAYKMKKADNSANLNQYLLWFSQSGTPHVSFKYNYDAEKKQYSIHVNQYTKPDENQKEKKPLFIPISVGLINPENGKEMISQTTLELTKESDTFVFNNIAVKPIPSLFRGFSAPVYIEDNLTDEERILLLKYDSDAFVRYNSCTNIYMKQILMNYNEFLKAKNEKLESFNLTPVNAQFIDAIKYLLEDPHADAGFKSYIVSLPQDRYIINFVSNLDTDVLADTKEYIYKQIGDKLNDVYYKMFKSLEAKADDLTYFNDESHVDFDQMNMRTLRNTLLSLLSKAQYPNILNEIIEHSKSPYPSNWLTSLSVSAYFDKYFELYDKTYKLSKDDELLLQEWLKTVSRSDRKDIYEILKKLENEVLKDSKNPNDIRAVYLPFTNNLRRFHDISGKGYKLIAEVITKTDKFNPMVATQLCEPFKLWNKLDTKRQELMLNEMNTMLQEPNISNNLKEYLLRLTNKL
# Sequence of Beta Lactamase (Q932Y6 whole entry): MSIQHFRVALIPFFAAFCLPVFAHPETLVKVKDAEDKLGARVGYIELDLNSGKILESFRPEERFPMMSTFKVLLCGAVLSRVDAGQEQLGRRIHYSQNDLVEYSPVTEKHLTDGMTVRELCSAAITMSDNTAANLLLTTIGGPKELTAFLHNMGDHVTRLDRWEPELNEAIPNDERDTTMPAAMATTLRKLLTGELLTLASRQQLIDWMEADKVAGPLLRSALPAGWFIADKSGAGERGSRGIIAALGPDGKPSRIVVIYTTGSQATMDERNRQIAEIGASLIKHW
# Sequence of Beta-galactosidase (Q8VNN2 whole entry): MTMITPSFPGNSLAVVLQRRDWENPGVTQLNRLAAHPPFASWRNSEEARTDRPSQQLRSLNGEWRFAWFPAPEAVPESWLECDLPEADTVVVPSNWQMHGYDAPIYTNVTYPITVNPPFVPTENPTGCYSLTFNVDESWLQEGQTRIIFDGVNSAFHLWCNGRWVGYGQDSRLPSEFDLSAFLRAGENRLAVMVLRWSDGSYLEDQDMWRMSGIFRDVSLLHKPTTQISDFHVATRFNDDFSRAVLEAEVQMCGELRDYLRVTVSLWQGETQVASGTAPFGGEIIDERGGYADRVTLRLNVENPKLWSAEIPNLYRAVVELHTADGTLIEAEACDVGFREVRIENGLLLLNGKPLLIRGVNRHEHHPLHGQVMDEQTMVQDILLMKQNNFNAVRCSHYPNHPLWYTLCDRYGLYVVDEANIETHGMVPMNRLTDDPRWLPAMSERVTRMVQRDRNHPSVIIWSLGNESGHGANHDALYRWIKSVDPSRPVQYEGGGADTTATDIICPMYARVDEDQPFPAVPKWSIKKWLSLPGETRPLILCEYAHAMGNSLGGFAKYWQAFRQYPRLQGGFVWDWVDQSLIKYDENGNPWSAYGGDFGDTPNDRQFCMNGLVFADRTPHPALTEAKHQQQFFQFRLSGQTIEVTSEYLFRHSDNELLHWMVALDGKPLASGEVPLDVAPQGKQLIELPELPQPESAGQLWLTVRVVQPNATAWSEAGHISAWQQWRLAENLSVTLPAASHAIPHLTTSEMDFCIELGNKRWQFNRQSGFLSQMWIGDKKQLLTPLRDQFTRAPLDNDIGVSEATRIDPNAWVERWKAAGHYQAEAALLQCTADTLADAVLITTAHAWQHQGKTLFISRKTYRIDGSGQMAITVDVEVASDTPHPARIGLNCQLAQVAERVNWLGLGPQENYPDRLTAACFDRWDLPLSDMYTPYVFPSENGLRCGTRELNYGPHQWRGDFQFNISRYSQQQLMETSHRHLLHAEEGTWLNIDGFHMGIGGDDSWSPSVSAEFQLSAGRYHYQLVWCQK
# Sequence of Aspartyl aminopeptidase (Q8I2J3 whole entry): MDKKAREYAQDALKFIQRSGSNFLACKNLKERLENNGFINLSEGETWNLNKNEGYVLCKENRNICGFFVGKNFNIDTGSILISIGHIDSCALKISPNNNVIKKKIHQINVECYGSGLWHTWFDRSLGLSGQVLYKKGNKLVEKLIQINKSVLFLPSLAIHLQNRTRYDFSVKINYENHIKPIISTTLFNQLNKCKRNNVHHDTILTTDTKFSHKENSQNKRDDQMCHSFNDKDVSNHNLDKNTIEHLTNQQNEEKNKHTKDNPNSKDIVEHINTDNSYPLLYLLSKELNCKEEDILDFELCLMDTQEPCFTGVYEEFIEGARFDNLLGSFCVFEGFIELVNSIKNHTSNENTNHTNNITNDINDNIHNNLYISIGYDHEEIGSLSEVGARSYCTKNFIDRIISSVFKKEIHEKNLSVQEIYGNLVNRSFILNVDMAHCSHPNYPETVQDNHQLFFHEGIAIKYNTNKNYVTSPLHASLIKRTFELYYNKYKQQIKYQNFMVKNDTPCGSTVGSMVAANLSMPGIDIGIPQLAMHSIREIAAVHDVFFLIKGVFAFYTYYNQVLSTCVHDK
# Sequence of Cytochrome P450 2C19 (P33261 whole entry): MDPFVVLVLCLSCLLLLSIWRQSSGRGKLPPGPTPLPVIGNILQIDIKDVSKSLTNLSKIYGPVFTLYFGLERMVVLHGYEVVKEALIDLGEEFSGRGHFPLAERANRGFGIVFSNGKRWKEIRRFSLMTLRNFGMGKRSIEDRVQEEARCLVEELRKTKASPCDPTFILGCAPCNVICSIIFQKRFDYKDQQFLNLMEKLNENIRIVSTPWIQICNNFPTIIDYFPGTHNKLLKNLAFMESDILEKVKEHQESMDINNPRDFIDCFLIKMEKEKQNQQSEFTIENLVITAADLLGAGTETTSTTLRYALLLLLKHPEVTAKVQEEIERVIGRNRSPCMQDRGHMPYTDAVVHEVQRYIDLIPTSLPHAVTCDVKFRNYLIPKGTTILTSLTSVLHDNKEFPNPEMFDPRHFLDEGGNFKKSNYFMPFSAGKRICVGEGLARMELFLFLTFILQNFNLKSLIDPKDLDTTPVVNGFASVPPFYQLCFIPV
# Sequence of Luciferin 4-monooxygenase (P08659 whole entry): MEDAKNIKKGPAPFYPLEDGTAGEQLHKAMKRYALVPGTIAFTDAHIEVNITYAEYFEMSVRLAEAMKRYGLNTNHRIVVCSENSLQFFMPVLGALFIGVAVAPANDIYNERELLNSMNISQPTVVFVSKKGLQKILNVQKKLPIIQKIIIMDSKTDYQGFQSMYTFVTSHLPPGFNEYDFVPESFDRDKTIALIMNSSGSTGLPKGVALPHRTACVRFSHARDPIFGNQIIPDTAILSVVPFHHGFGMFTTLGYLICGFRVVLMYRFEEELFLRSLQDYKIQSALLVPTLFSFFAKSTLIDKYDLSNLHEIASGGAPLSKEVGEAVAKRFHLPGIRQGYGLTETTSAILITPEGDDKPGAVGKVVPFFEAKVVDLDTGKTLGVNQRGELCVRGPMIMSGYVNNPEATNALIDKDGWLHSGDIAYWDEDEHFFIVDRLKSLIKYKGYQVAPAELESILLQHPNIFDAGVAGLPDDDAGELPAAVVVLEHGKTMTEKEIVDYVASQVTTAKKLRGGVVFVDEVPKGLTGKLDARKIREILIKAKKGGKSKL
# Sequence of Procathepsin L (P07711 whole entry): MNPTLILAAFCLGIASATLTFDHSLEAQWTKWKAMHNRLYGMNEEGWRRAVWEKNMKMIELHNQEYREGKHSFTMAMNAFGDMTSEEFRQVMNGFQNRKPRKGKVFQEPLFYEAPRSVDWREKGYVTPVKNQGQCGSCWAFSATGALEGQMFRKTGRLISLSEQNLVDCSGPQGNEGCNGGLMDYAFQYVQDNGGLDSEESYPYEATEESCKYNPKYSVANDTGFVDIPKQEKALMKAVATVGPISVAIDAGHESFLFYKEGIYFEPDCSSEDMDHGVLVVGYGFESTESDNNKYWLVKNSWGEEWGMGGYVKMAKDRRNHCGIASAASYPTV
# Sequence of Cytochrome P450 2C9 (P11712 whole entry): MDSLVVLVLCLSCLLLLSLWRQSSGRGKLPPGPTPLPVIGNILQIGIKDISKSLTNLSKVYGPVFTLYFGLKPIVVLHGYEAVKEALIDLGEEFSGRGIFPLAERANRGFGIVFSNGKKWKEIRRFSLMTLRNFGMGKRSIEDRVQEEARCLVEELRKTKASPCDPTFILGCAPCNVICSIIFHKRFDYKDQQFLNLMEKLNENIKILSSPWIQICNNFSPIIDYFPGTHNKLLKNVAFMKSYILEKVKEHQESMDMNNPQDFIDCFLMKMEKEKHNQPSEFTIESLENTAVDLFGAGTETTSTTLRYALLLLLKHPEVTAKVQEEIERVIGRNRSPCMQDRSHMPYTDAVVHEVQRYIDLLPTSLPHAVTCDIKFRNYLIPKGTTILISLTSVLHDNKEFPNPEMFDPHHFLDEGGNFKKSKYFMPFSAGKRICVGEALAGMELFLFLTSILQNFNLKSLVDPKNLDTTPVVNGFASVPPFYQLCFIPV
# Sequence of Glyceraldehyde-3-phosphate dehydrogenase (P04406 whole entry): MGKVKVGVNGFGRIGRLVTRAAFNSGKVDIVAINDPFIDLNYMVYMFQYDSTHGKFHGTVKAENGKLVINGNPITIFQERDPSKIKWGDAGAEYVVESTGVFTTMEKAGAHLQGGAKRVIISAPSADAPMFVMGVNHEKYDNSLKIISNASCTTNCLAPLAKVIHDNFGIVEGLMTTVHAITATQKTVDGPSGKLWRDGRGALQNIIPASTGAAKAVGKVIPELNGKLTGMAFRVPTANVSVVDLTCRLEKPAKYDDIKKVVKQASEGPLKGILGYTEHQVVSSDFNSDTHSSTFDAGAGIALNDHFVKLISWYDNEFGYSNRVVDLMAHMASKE
compound,measurement,setting,value
O=C1C(Cl)=C(N2CCN(c3cccc(C(F)(F)F)c3)CC2)C(=O)N1c1ccc(Cl)c(Cl)c1,IC50,[1],> 100 µM (not active)
same,IC50,Bcl-2-related protein A1 [2],> 100 µM (not active)
same,IC50,Bcl-2-related protein A1 [3],> 100 µM (not active)
Cc1ccc(NN2C(=O)C=C(c3ccccc3)C2=O)cc1,EC50,[4],10.5 µM (active)
same,EC50,[5],< 30 µM (active)
same,IC50,[6],1.72 µM (active)
same,IC50,Beta-galactosidase,> 66.6 µM (inactive)
same,EC50,[7],5.06 µM (active)
same,IC50,Beta Lactamase,28.7 µM (inactive)
same,EC50,[8],> 112 µM (not active)
COc1ccc(C(=O)[C@H]2[C@H]3[C@@H](C(=O)[C@@H]4OC[C@H]3O4)[C@H]3C=Cc4ccccc4N32)c(OC)c1,AC50,Cytochrome P450 2C9,31.6 µM (inconclusive)
same,AC50,Cytochrome P450 2C19,31.6 µM (inconclusive)
O=C(NCc1ccco1)C1CCCN(S(=O)(=O)c2cccc3nonc23)C1 (stereo not given),IC50,Procathepsin L,> 59.6 µM (not active)
same,IC50,Aspartyl aminopeptidase,> 73.5 µM (not active)
same,IC50,Aminopeptidase N,18.6 µM (active)
